Numbered stars: 1 amine (or outer) side, 2 acyl side, 3 side chain; on linkers, the order of the positions; unused ones are H or OH. Bridge positions count the residues as written; N and C are the ends. Square brackets hold non-standard residues; d marks the D form. Peptide text beside a SMILES is read from it. I, II: the chains in the order shown. Actinocin(9to1) = Cc1c2oc3c(C)ccc(C(=O)[*:1])c3nc-2c(C(=O)[*:2])c(N)c1=O; NMeV = CN[C@H](C(=O)O)C(C)C; Sar = CNCC(=O)O
Key:
[1] = system: terminal deoxynucleotidyl transferase (TdT); assay: In vitro induction of TdT in fraction B bone marrow cells from NIH Swiss nu/nu mice; format: cell-based; details: for TdT induction relative to the thymosin fraction 5 level: BSA fraction B from bone marrow; for TdT specific activity: peak I activity only, incubation 18 hours with 50 ng/ml
Source text: The method of Raidt et al., J. Exp. Med. 128, 681 (1968) was used to fractionate different cell suspensions from spleen, thymus, lymph nodes or bone marrow. Four layers of cells were formed at the interfaces of the discontinuous BSA gradient: Fraction A between 10% and 23% BSA; fraction B between 23-26%; fraction C between 26-29%; and fraction D between 29-33% BSA. BSA (Path-O-Cyte 5, lots 25 and 26) was obtained from Miles Research Products (Elkhart, Ind.). Fractionated cells were washed three times in Ham's F-12 medium.
(§1) The procedure for enzyme extraction has been described previously by Pazmino et al., J. Immunol. 119, 494 (1977).
(§2) The TdT assay was adapted from Kung et al, J. Exp. Med. 141, 855 (1975). One unit of enzyme activity was defined as the amount catalyzing the incorporation of 1 pmol of dGTP into acid insoluble material per hour. The specific activity was calculated from the total enzyme activity recovered from phosphocellulose per 10^8 nucleated viable cells.
Ten daily injections of 100 μg were given intraperitoneally to six-week-old NIH Swiss nu/nu, which were sacrificed 24 hours after the last injection. For the in vitro induction experiments, cells were washed three times after BSA gradient fractionation in Ham's F-12 medium containing 100 U/ml penicillin, 100 μg/ml streptomycin and 10 μg/ml gentomycin. After being washed, cell concentrations were adjusted to 1×10^8 cells/dish in 20 ml of Ham's F-12 medium containing antibiotics, 5% fetal bovine serum (Flow Laboratories, Rockville, Md.) and different concentrations of thymosin or spleen fraction 5 or of any of the different peptides isolated from thymosin. After incubation for various periods of time, cells were collected, washed twice with Ham's F-12 and extracted as previously described for TdT activity.
The following peptides, isolated from thymosin, were assayed for their ability to induce TdT in vitro: α1, β1, β3, β4, and synthetic α-1.
(§3) Actinomycin D at 0.5 μg/ml was incubated for 12 hours in the presence of thymosin with fraction B from the bone marrow of NIH Swiss nu/nu mice to study their effect on TdT induction. To follow the effect of Actinomycin D on RNA synthesis, cells were labeled with [^3 H] uridine (10 μCi/ml) for the last 90 minutes of incubation.

RNA synthesis = assay: Effect of Actinomycin D on RNA synthesis ([3H] uridine labeling) in fraction B bone marrow cells; format: cell-based, mice; details: 0.5 μg/ml, 12 hours, in the presence of thymosin
Description: as §3

[2] = system: TdT positive cells in T-cell populations; details: partially purified peptides; Low and Goldstein 1978; cited from earlier work
[3] = system: terminal deoxynucleotidyl transferase (TdT); assay: In vivo TdT assay in thymocytes from hydrocortisone acetate treated C57BL/6J mice; details: for TdT specific activity: daily for 9 to 11 days, thymocytes
Description: as §1, §2
Thymosin activity was also tested by a in vivo TdT assay. Different doses of thymosin fraction 5 and other purified thymosin polypeptides were injected into hydrocortisone acetate treated C57BL/6J mice daily for 9 to 11 days. The animals were sacrificed, thymocytes prepared and TdT activity determined using the method described by Pazmino et al., J. Immunol. 119, 494 (1977). […]

[4] = Isoelectric focusing (isoelectric point); format: physicochemical
Description: Isoelectric focusing was conducted for 90 minutes using a constant power of 25 watts (LKB Model 2103 power supply). The gels were fixed in 20% trichloroacetic acid for one hour. They were stained in 0.1% Coomassie Blue in 20% trichloroacetic acid and destained in 10% trichloroacetic acid.

[5] = FIG. 3, bone marrow fraction B cells

| Compound | effect on induction of TdT by thymosin ([1]; 0.5 μg/ml actinomycin D, 12 hours, in the presence of thymosin) | inhibition of RNA synthesis (RNA synthesis) | induction of TdT positive cells in T-cell populations [2] | shape of TdT dose response [1] | TdT induction relative to the thymosin fraction 5 level [1] [%] | concentration with significant TdT induction [1, 5] [ng/mL] | optimal concentration for TdT induction [1, 5] [ng/mL] | effect on TdT induction at higher concentrations ([1]; FIG. 3, β3 even at 500 ng/ml) | TdT specific activity [1] | TdT specific activity ([3]; 1 μg/infection) | TdT specific activity ([3]; 10 μg/infection) | activity in inducing TdT in vivo compared with thymosin fraction 5 ([3]; One μg of β3 vs 100 μg of thymosin fraction 5) | isoelectric point (pI) [4] |
| --- | --- | --- | --- | --- | --- | --- | --- | --- | --- | --- | --- | --- | --- |
| Cc1c2oc3c(C)ccc(C(=O)N[C@@H]4C(=O)N[C@H](C(C)C)C(=O)N5CCC[C@H]5C(=O)N(C)CC(=O)N(C)[C@@H](C(C)C)C(=O)O[C@@H]4C)c3nc-2c(C(=O)N[C@@H]2C(=O)N[C@H](C(C)C)C(=O)N3CCC[C@H]3C(=O)N(C)CC(=O)N(C)[C@@H](C(C)C)C(=O)O[C@@H]2C)c(N)c1=O [actinomycin D, Actinomycin D, reference compound] (I: T[dV]P[Sar][NMeV] / II: T[dV]P[Sar][NMeV]; ester I:1-I:C, II:1-II:C; linker I:N-II:N via Actinocin(9to1)) | inhibited, as is the induction of TdT | greater than 95% |  |  |  |  |  |  |  |  |  |  |  |
| Thymosin β3 |  |  | induce TdT positive cells | increases as the doses increase | ~80 | 1 | 10 | no inhibition of induction was observed | 145.0 picomoles 3HdGTP/hour/10^8 cel | 2758.6 p moles (3HdGTP/30 min/10^8 ce | 2954.3 p moles (3HdGTP/30 min/10^8 ce | as active in inducing TdT in vivo as 100 μg of thymosin fraction 5 | 5.2 |
| Thymosin β4 |  |  | induce TdT positive cells | increases as the doses increase | 30 |  |  |  | 58.0 picomoles 3HdGTP/hour/10^8 cel |  |  |  | 5.1 |
